Test results from ChEMBL document CHEMBL5724914, “Linking interpersonal differences in gut microbiota composition and drug biotransformation activity” (2024).

Columns and labels:
[1] = The drug is tested on WLS-077 corresponding to human gut metagenome with ENA study accession number: PRJEB37062 and ENA sample accession number: ERS12561750 for biotransformation under anaerobic condition. The drug concentrations were measured over 9 timepoints collected between 0 and 24 hours of incubation by liquid-chromatography-coupled mass spectrometry (LC–MS); conditions: 2 µM
[2] = human gut metagenome, 24 h, 2 µM
[3] = human gut metagenome, 24 h, 2 µM; remark: listed apart in the source
[4] = human gut metagenome, 24 h, 2 µM; remark: listed apart in the source
[5] = The drug is tested on Z-021 corresponding to metagenome with ENA study accession number: PRJEB37062 and ENA sample accession number: ERS12561820 for biotransformation under anaerobic condition. The drug concentrations were measured over 9 timepoints collected between 0 and 24 hours of incubation by liquid-chromatography-coupled mass spectrometry (LC–MS); conditions: 2 µM
[6] = The drug is tested on WLS-086 corresponding to human gut metagenome with ENA study accession number: PRJEB37062 and ENA sample accession number: ERS12561752 for biotransformation under anaerobic condition. The drug concentrations were measured over 9 timepoints collected between 0 and 24 hours of incubation by liquid-chromatography-coupled mass spectrometry (LC–MS); conditions: 2 µM
[7] = The drug is tested on Z-009 corresponding to pig gut metagenome with ENA study accession number: PRJEB37062 and ENA sample accession number: ERS12561809 for biotransformation under anaerobic condition. The drug concentrations were measured over 9 timepoints collected between 0 and 24 hours of incubation by liquid-chromatography-coupled mass spectrometry (LC–MS); conditions: 2 µM
[8] = human gut metagenome, 24 h, 2 µM; remark: listed apart in the source
[9] = The drug is tested on WLS-006 corresponding to human gut metagenome with ENA study accession number: PRJEB37062 and ENA sample accession number: ERS12561741 for biotransformation under anaerobic condition. The drug concentrations were measured over 9 timepoints collected between 0 and 24 hours of incubation by liquid-chromatography-coupled mass spectrometry (LC–MS); conditions: 2 µM
[10] = human gut metagenome, 24 h, 2 µM; remark: listed apart in the source
[11] = human gut metagenome, 24 h, 2 µM; remark: listed apart in the source
[12] = The drug is tested on Z-023 corresponding to metagenome with ENA study accession number: PRJEB37062 and ENA sample accession number: ERS12561822 for biotransformation under anaerobic condition. The drug concentrations were measured over 9 timepoints collected between 0 and 24 hours of incubation by liquid-chromatography-coupled mass spectrometry (LC–MS); conditions: 2 µM
[13] = human gut metagenome, 24 h, 2 µM; remark: listed apart in the source
[14] = The drug is tested on WLS-082 corresponding to human gut metagenome with ENA study accession number: PRJEB37062 and ENA sample accession number: ERS12561751 for biotransformation under anaerobic condition. The drug concentrations were measured over 9 timepoints collected between 0 and 24 hours of incubation by liquid-chromatography-coupled mass spectrometry (LC–MS); conditions: 2 µM
[15] = The drug is tested on Z-008 corresponding to metagenome with ENA study accession number: PRJEB37062 and ENA sample accession number: ERS12561808 for biotransformation under anaerobic condition. The drug concentrations were measured over 9 timepoints collected between 0 and 24 hours of incubation by liquid-chromatography-coupled mass spectrometry (LC–MS); conditions: 2 µM
[16] = The drug is tested on WLS-170 corresponding to human gut metagenome with ENA study accession number: PRJEB37062 and ENA sample accession number: ERS12561762 for biotransformation under anaerobic condition. The drug concentrations were measured over 9 timepoints collected between 0 and 24 hours of incubation by liquid-chromatography-coupled mass spectrometry (LC–MS); conditions: 2 µM
[17] = The drug is tested on WLS-220 corresponding to human gut metagenome with ENA study accession number: PRJEB37062 and ENA sample accession number: ERS12561769 for biotransformation under anaerobic condition. The drug concentrations were measured over 9 timepoints collected between 0 and 24 hours of incubation by liquid-chromatography-coupled mass spectrometry (LC–MS); conditions: 2 µM
[18] = human gut metagenome, 24 h, 2 µM; remark: listed apart in the source
[19] = The drug is tested on Z-016 corresponding to mouse gut metagenome with ENA study accession number: PRJEB37062 and ENA sample accession number: ERS12561815 for biotransformation under anaerobic condition. The drug concentrations were measured over 9 timepoints collected between 0 and 24 hours of incubation by liquid-chromatography-coupled mass spectrometry (LC–MS); conditions: 2 µM
[20] = The drug is tested on WLS-370 corresponding to human gut metagenome with ENA study accession number: PRJEB37062 and ENA sample accession number: ERS12561793 for biotransformation under anaerobic condition. The drug concentrations were measured over 9 timepoints collected between 0 and 24 hours of incubation by liquid-chromatography-coupled mass spectrometry (LC–MS); conditions: 2 µM
Further: call rule not given here.

Structure (SMILES)	Bacterial Biotransformation [1]	Bacterial Biotransformation [2]	Bacterial Biotransformation [3]	Bacterial Biotransformation [4]	Bacterial Biotransformation [5]	Bacterial Biotransformation [6]	Bacterial Biotransformation [7]	Bacterial Biotransformation [8]	Bacterial Biotransformation [9]	Bacterial Biotransformation [10]	Bacterial Biotransformation [11]	Bacterial Biotransformation [12]	Bacterial Biotransformation [13]	Bacterial Biotransformation [14]	Bacterial Biotransformation [15]	Bacterial Biotransformation [16]	Bacterial Biotransformation [17]	Bacterial Biotransformation [18]	Bacterial Biotransformation [19]	Bacterial Biotransformation [20]
CCCc1nc(C(C)(C)O)c(C(=O)OCc2oc(=O)oc2C)n1Cc1ccc(-c2ccccc2-c2nnn[nH]2)cc1 [OLMESARTAN MEDOXOMIL]	Compound metabolized	Compound metabolized	Compound metabolized	Compound NOT metabolized	Compound metabolized	Compound metabolized	Compound metabolized	Compound metabolized	Compound metabolized	Compound NOT metabolized	Compound NOT metabolized	Compound metabolized	Compound NOT metabolized	Compound metabolized	Compound metabolized	Compound metabolized	Compound metabolized	Compound NOT metabolized	Compound metabolized	Compound metabolized
CCN(CC)CC#CCOC(=O)C(O)(c1ccccc1)C1CCCCC1.Cl (stereo not given) [OXYBUTYNIN CHLORIDE]	Compound metabolized	Compound metabolized	Compound metabolized	Compound metabolized	Compound metabolized	Compound metabolized	Compound metabolized	Compound metabolized	Compound metabolized	Compound metabolized	Compound metabolized	Compound metabolized	Compound metabolized	Compound metabolized	Compound NOT metabolized	Compound metabolized	Compound metabolized	Compound metabolized	Compound NOT metabolized	Compound metabolized
Fc1ccc([C@@H]2CCNC[C@H]2COc2ccc3c(c2)OCO3)cc1 [PAROXETINE]	Compound NOT metabolized	Compound metabolized	Compound metabolized	Compound metabolized	Compound metabolized	Compound metabolized	Compound metabolized	Compound metabolized	Compound NOT metabolized	Compound NOT metabolized	Compound NOT metabolized	Compound metabolized	Compound NOT metabolized	Compound metabolized	Compound NOT metabolized	Compound metabolized	Compound metabolized	Compound metabolized	Compound NOT metabolized	Compound metabolized
